According to PubChem BioAssay (NCI):
Where “and” joins values, the source holds several entries; their conditions need not be identical. Equal values may be shown once.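 All cell lines were grown in 96-well plates and treated with compound for 48 hours. GI50 marks 50% less growth. The concentration for full growth arrest is given as TGI.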

What was measured:
Assay in all cases: NCI tumour cell line growth inhibition, 48 h
CCRF-CEM leukemia = tested on: CCRF-CEM leukemia
COLO 205 colon = tested on: COLO 205 colon
IGROV1 ovarian = tested on: IGROV1 ovarian
NCI-H226 lung = tested on: NCI-H226 lung
SF-539 CNS = tested on: SF-539 CNS
SNB-75 CNS = tested on: SNB-75 CNS
SW-620 colon = tested on: SW-620 colon
TK-10 renal = tested on: TK-10 renal
UACC-257 melanoma = tested on: UACC-257 melanoma
SR leukemia = tested on: SR leukemia

Structure (SMILES)	TGI (CCRF-CEM leukemia) [µM]	TGI (COLO 205 colon)	TGI (IGROV1 ovarian) [µM]	TGI (NCI-H226 lung)	TGI (SF-539 CNS) [µM]	TGI (SNB-75 CNS) [µM]	TGI (SW-620 colon) [µM]	TGI (TK-10 renal)	TGI (UACC-257 melanoma)	GI50 (COLO 205 colon) [µM]	GI50 (IGROV1 ovarian) [µM]	GI50 (SNB-75 CNS) [µM]	GI50 (SW-620 colon) [µM]	GI50 (TK-10 renal)	GI50 (CCRF-CEM leukemia) [µM]	GI50 (NCI-H226 lung)	GI50 (SF-539 CNS) [µM]	GI50 (UACC-257 melanoma) [µM]	TGI (SR leukemia) [µM]	GI50 (SR leukemia) [µM]
COc1ccc(N=NC(C(=O)c2ccccc2)C(=O)c2ccccc2)cc1	58.2	> 100 µM	> 100	29.9 µM	84.9	74.8	> 100	> 100 µM	> 100 µM	–	–	–	–	–	–	–	–	–	–	–
COc1cc2c(c(OC)c1OC)-c1ncc3c(OC)c(OC)c(OC)cc3c1C2	–	38.2 µM	93	–	–	> 100	> 100	63.5 µM	–	19.9	34.1	> 100	37	22.5 µM	–	–	–	–	–	–
CCOC(=O)C(=O)Nc1ccccc1C	> 100	> 100 µM	> 100	> 100 µM	> 100	> 100	> 100	> 100 µM	–	–	–	–	–	–	–	–	–	–	–	–
O=c1c2cc(F)ccc2sc2c(N3CCNCC3)nc3ccc(F)cc3c12	5.24	4.72 µM	2.74	3.03 µM	3.15	2.82	3.12	3.47 µM	3.7 µM	2.15	1.34	1.42	1.61	1.94 µM	2.06	1.53 µM	1.72	1.88	–	–
CC1=C(C(=O)CC(=O)C(=O)Nc2cc(C)ccc2C)Sc2ccccc2N1	> 100	–	> 100	> 100 µM	> 100	–	> 100	> 100 µM	> 100 µM	–	–	–	–	–	–	–	–	–	–	–
O=C(CCC(=O)Nc1ccc(Cl)c(Cl)c1)CC(=O)c1ccc(Br)cc1	> 100	> 100 µM	> 100	> 100 µM	> 100	> 100	> 100	> 100 µM	> 100 µM	–	–	–	–	–	–	–	–	–	–	–
Cc1[nH]nc(C(F)(F)F)c1N=NN(C)C	16	10.7 µM	–	6.36 µM	20.7	–	> 100	22.9 µM	28.2 µM	–	–	–	–	–	–	–	–	–	18.8	–
COc1cccc(/C(C#N)=C/c2nc3c(N4CCOCC4)nc(Cl)nc3n2C)c1	0.934	3.09 µM	2.49	3.35 µM	2.79	1.79	1.7	–	2.9 µM	1.33	1.2	0.305	0.429	–	0.318	1.56 µM	1.44	1.41	2.44	0.355
CCNC(=O)COc1ccc(Br)cc1Br	> 100	> 100 µM	> 100	> 100 µM	> 100	> 100	> 100	–	> 100 µM	–	–	–	–	–	–	–	–	–	> 100	–
CC(=O)N/N=C1\CC(C)(C)C2CCC1C2 (configuration not stated)	> 100	> 100 µM	> 100	–	> 100	> 100	> 100	> 100 µM	> 100 µM	–	–	–	–	–	–	–	–	–	–	–
COc1ccc(S(=O)(=O)N2CCN(C(=O)c3ccc(-c4ccccc4)cc3)CC2C(=O)NO)cc1 (configuration not stated)	> 100	12.5 µM and > 100 µM	–	12.5 µM and 88.9 µM	4.22	10.3	–	7.33 µM and 58.5 µM	12.5 µM and > 100 µM	–	–	3.66	–	1.83 µM and 12.1 µM	> 100	5.2 µM and 20.7 µM	1.98	–	–	–
COc1ccc(NC(=O)/C(=C/c2ccccc2)C(C)=O)cc1	27.9	35.7 µM	38.6	96.9 µM	28.7	21	35.1	37.4 µM	29.3 µM	–	–	–	–	–	–	–	–	–	–	–
COC(=O)c1cc2c3ccccc3n3c(=O)c4cc5ccc(N(S(=O)(=O)c6ccc(C)cc6)S(=O)(=O)c6ccc(C)cc6)cc5nc4c(n1)c23	44.9	> 100 µM	> 100	> 100 µM	> 100	> 100	> 100	44 µM	> 100 µM	> 100	43.7	44.5	> 100	19.4 µM	19.2	33.8 µM	25.4	> 100	–	–
COc1ccc(NC(=O)CC2SC(=Nc3ccccc3C)NC2=O)c([N+](=O)[O-])c1 (configuration not stated)	–	> 100 µM	> 100	> 100 µM	> 100	> 100	> 100	> 100 µM	> 100 µM	–	–	–	–	–	–	–	–	–	> 100	–
OCc1ccc(N2CCc3cccc(F)c3C2)cc1Cl	99.1	0.175 µM	0.101	0.0936 µM	> 87.7	47.7	> 79.7	–	–	0.0197	0.025	13.9	< 0.0209	–	24.9	0.0191 µM	27.8	–	58.8	19.3
C=CCn1c(C)nc2ccc(Nc3nc(Nc4ccc(F)cc4)nc4ccccc34)cc21	11.7	–	27.2	–	25.7	3.37	10.7	24.6 µM	29.9 µM	–	6.09	1.51	2.8	6.83 µM	3.01	–	12.3	13.1	5.93	2.26
CCC1CC2C(=O)N(c3ccccc3)C(=O)C2c2[nH]c3ccccc3c21 (configuration not stated)	> 100	78.5 µM	30.6	33.8 µM	–	13	> 100	68.3 µM	–	–	–	–	–	–	–	–	–	–	> 100	–
N/N=C1\C(=O)N(C2CCCCCC2)C(=O)C1C(=O)NC1CCCCCC1 (configuration not stated)	80.8	> 100 µM	> 100	–	56.1	–	> 100	> 10 µM	> 100 µM	–	–	–	–	–	–	–	–	–	–	–
S=c1snc2n1CCN2	> 100	> 100 µM	> 100	> 100 µM	> 100	> 100	> 100	> 100 µM	> 100 µM	25.2	> 100	> 100	40.5	> 100 µM	33.4	32.3 µM	> 100	> 100	–	–
